Consider 21 molecules from US10487092B2, “Pyrazolopyridinamines as MKNK1 and MKNK2 inhibitors” (BAYER PHARMA AKTIENGESELLSCHAFT, priority 2014, dated 2019).

The structures appear in SMILES notation. pIC50: −log10 of the molar value.

Chain of human full-length MKNK1 (Q9BUB5 other isoform, or with tags, fused parts or gaps T344D): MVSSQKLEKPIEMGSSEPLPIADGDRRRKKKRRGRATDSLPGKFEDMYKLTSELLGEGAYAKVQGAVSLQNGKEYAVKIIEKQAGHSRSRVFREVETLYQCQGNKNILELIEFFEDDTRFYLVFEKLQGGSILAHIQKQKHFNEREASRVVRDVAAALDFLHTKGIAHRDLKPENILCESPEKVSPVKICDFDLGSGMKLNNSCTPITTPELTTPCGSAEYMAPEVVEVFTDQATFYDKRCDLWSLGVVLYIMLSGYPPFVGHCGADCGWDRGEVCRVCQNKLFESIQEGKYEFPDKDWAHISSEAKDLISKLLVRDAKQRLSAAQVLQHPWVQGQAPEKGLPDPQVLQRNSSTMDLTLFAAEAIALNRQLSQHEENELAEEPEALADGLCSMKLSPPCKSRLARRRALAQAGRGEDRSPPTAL

The target in the assay is human full-length MKNK1 (Homo sapiens (Human), UniProt Q9BUB5, T344D). Description: MKNK1 kinase high ATP assay (TR-FRET). The assay is classed as biochemical. Conditions: high ATP (2 mM), 15 min preincubation with enzyme; read-out: MKNK1 IC50. The method, then:
MKNK1 Kinase High ATP Assay
MKNK1-inhibitory activity at high ATP of compounds of the present invention after their preincubation with MKNK1 was quantified employing the TR-FRET-based MKNK1 high ATP assay as described in the following paragraphs.
A recombinant fusion protein of Glutathione-S-Transferase (GST, N-terminally) and human full-length MKNK1 (amino acids 1-424 and T344D of accession number BAA 19885.1), expressed in insect cells using baculovirus expression system and purified via glutathione sepharose affinity chromatography, was purchased from Carna Biosciences (product no 02-145) and used as enzyme. As substrate for the kinase reaction the biotinylated peptide biotin-Ahx-IKKRKLTRRKSLKG (SEQ ID NO: 1, C-terminus in amide form) was used, which can be purchased e.g. from the company Biosyntan (Berlin-Buch, Germany).
For the assay 50 nL of a 100 fold concentrated solution of the test compound in DMSO was pipetted into a black low volume 384 well microtiter plate (Greiner Bio-One, Frickenhausen, Germany), 2 μL of a solution of MKNK1 in aqueous assay buffer [50 mM HEPES pH 7.5, 5 mM MgCl2, 1.0 mM dithiothreitol, 0.005% (v/v) Nonidet-P40 (Sigma)] was added and the mixture was incubated for 15 min at 22° C. to allow pre-binding of the test compounds to the enzyme before the start of the kinase reaction. Then the kinase reaction was started by the addition of 3 μL of a solution of adenosine-tri-phosphate (ATP, 3.3 mM=>final conc. in the 5 μL assay volume is 2 mM) and substrate (0.1 μM=>final conc. in the 5 μL assay volume is 0.06 μM) in assay buffer and the resulting mixture was incubated for a reaction time of 30 min at 22° C. The concentration of MKNK1 was adjusted depending of the activity of the enzyme lot and was chosen appropriate to have the assay in the linear range, typical concentrations were in the range of 0.003 μg/mL. The reaction was stopped by the addition of 5 μL of a solution of TR-FRET detection reagents (5 nM streptavidine-XL665 [Cisbio Bioassays, Codolet, France] and 1 nM anti-ribosomal protein S6 (pSer236)-antibody from Invitrogen [#44921G] and 1 nM LANCE EU-W1024 labeled ProteinG [Perkin-Elmer, product no. AD0071]) in an aqueous EDTA-solution (100 mM EDTA, 0.1% (w/v) bovine serum albumin in 50 mM HEPES pH 7.5).
The resulting mixture was incubated for 1 h at 22° C. to allow the formation of complex between the phosphorylated biotinylated peptide and the detection reagents. Subsequently the amount of phosphorylated substrate was evaluated by measurement of the resonance energy transfer from the Eu-chelate to the streptavidine-XL. Therefore, the fluorescence emissions at 620 nm and 665 nm after excitation at 350 nm were measured in a TR-FRET reader, e.g. a Rubystar (BMG Labtechnologies, Offenburg, Germany) or a Viewlux (Perkin-Elmer). The ratio of the emissions at 665 nm and at […] was taken as the measure for the amount of phosphorylated substrate. The data were normalised (enzyme reaction without inhibitor=0% inhibition, all other assay components but no enzyme=100% inhibition).
`CCCCN(C)C(=O)[C@H]1CCc2c(sc3ncnc(Nc4cc5ccnn5cc4Cl)c23)C1` [Example 49, (7S)—N-Butyl-4-[(6-chloropyrazolo[1,5-a]pyridin-5-yl)amino]-N-methyl-5,6,7,8-tetrahydro[1]benzothieno[2,3-d]pyrimidine-7-carboxamide]: the pIC50 (commonly −log10 of the IC50, conventionally taken in molar units) is 7.82.
On to `N#CC1CN(C(=O)[C@H]2CCc3c(sc4ncnc(Nc5cc6ccnn6cc5Cl)c34)C2)C1` [Example 50, 1-((7S)-4-[(6-Chloropyrazolo[1,5-a]pyridin-5-yl)amino]-5,6,7,8-tetrahydro[1]benzothieno[2,3-d]pyrimidin-7-ylcarbonyl)azetidine-3-carbonitrile], for which the pIC50 was 8.15.
Under `CC1(O)CN(C(=O)[C@H]2CCc3c(sc4ncnc(Nc5cc6ccnn6cc5Cl)c34)C2)C1` [Example 52, (7S)-4-[(6-Chloropyrazolo[1,5-a]pyridin-5-yl)amino]-5,6,7,8-tetrahydro[1]benzothieno[2,3-d]pyrimidin-7-yl(3-hydroxy-3-methylazetidin-1-yl)methanone] stands 8.10; under `CN(CCO)C(=O)[C@H]1CCc2c(sc3ncnc(Nc4cc5ccnn5cc4Cl)c23)C1` [Example 55, (7S)-4-[(6-Chloropyrazolo[1,5-a]pyridin-5-yl)amino]-N-(2-hydroxyethyl)-N-methyl-5,6,7,8-tetrahydro[1]benzothieno[2,3-d]pyrimidine-7-carboxamide], 7.74; under `COCCN(C)C(=O)[C@H]1CCc2c(sc3ncnc(Nc4cc5ccnn5cc4Cl)c23)C1` [Example 56, (7S)-4-[(6-Chloropyrazolo[1,5-a]pyridin-5-yl)amino]-N-(2-methoxyethyl)-N-methyl-5,6,7,8-tetrahydro[1]benzothieno[2,3-d]pyrimidine-7-carboxamide], 7.39.
The value for `CC(C)N(C)C(=O)[C@H]1CCc2c(sc3ncnc(Nc4cc5ccnn5cc4Cl)c23)C1` [Example 57, (7S)-4-[(6-Chloropyrazolo[1,5-a]pyridin-5-yl)amino]-N-methyl-N-(propan-2-yl)-5,6,7,8-tetrahydro[1]benzothieno[2,3-d]pyrimidine-7-carboxamide] was 7.92; that for `CN(C)[C@@H]1CCN(C(=O)[C@H]2CCc3c(sc4ncnc(Nc5cc6ccnn6cc5Cl)c34)C2)C1` [Example 58, (7S)-4-[(6-Chloropyrazolo[1,5-a]pyridin-5-yl)amino]-5,6,7,8-tetrahydro[1]benzothieno[2,3-d]pyrimidin-7-yl[(3R)-3-(dimethylamino)pyrrolidin-1-yl]methanone] was 8.70; that for `CN(C)[C@H]1CCN(C(=O)[C@H]2CCc3c(sc4ncnc(Nc5cc6ccnn6cc5Cl)c34)C2)C1` [Example 59, (7S)-4-[(6-Chloropyrazolo[1,5-a]pyridin-5-yl)amino]-5,6,7,8-tetrahydro[1]benzothieno[2,3-d]pyrimidin-7-yl[(3S)-3-(dimethylamino)pyrrolidin-1-yl]methanone] was 9.00.
With `O=C([C@H]1CCc2c(sc3ncnc(Nc4cc5ccnn5cc4Cl)c23)C1)N1C[C@H](O)[C@@H](O)C1` [Example 60, (7S)-4-[(6-Chloropyrazolo[1,5-a]pyridin-5-yl)amino]-5,6,7,8-tetrahydro[1]benzothieno[2,3-d]pyrimidin-7-yl[(3S,4S)-3,4-dihydroxypyrrolidin-1-yl]methanone], the pIC50 is 7.74.
With `CN(C)C1CCN(C(=O)[C@H]2CCc3c(sc4ncnc(Nc5cc6ccnn6cc5Cl)c34)C2)CC1` [Example 61, (7S)-4-[(6-Chloropyrazolo[1,5-a]pyridin-5-yl)amino]-5,6,7,8-tetrahydro[1]benzothieno[2,3-d]pyrimidin-7-yl[4-(dimethylamino)piperidin-1-yl]methanone], the pIC50 was 7.89.
Under `CN(C)CCCN(CCO)C(=O)[C@H]1CCc2c(sc3ncnc(Nc4cc5ccnn5cc4Cl)c23)C1` [Example 63, (7S)4-[(6-Chloropyrazolo[1,5-a]pyridin-5-yl)amino]-N-[3-(dimethylamino)propyl]-N-(2-hydroxyethyl)-5,6,7,8-tetrahydro[1]benzothieno[2,3-d]pyrimidine-7-carboxamide] stands 7.82; under `C[C@@H]1CN(C(=O)[C@H]2CCc3c(sc4ncnc(Nc5cc6ccnn6cc5Cl)c34)C2)C[C@H](C)O1` [Example 64, (7S)-4-[(6-Chloropyrazolo[1,5-a]pyridin-5-yl)amino]-5,6,7,8-tetrahydro[1]benzothieno[2,3-d]pyrimidin-7-yl[(2R,6S)-2,6-dimethylmorpholin-4-yl]methanone], 8.00.
Under `CN(C)CCN1CCN(C(=O)[C@H]2CCc3c(sc4ncnc(Nc5cc6ccnn6cc5Cl)c34)C2)CC1` [Example 66, (7S)-4-[(6-Chloropyrazolo[1,5-a]pyridin-5-yl)amino]-5,6,7,8-tetrahydro[1]benzothieno[2,3-d]pyrimidin-7-yl4-[2-(dimethylamino)ethyl]piperazin-1-ylmethanone] stands 8.22; under `CCN(CCN(C)C)C(=O)[C@H]1CCc2c(sc3ncnc(Nc4cc5ccnn5cc4Cl)c23)C1` [Example 67, (7S)-4-[(6-Chloropyrazolo[1,5-a]pyridin-5-yl)amino]-N-[2-(dimethylamino)ethyl]-N-ethyl-3,5,6,7,8-tetrahydro[1]benzothieno[2,3-d]pyrimidine-7-carboxamide], 7.52.
With `O=C([C@H]1CCc2c(sc3ncnc(Nc4cc5ccnn5cc4Cl)c23)C1)N1CCOCC1` [Example 68, (7S)-4-[(6-Chloropyrazolo[1,5-a]pyridin-5-yl)amino]-5,6,7,8-tetrahydro[1]benzothieno[2,3-d]pyrimidin-7-yl(morpholin-4-yl)methanone], the pIC50 is 8.40.
The value for `CCN(CCO)C(=O)[C@H]1CCc2c(sc3ncnc(Nc4cc5ccnn5cc4Cl)c23)C1` [Example 69, (7S)-4-[(6-Chloropyrazolo[1,5-a]pyridin-5-yl)amino]-N-ethyl-N-(2-hydroxyethyl)-5,6,7,8-tetrahydro[1]benzothieno[2,3-d]pyrimidine-7-carboxamide] was 8.22; that for `CCN(CCOC)C(=O)[C@H]1CCc2c(sc3ncnc(Nc4cc5ccnn5cc4Cl)c23)C1` [Example 70, (7S)-4-[(6-Chloropyrazolo[1,5-a]pyridin-5-yl)amino]-N-ethyl-N-(2-methoxyethyl)-5,6,7,8-tetrahydro[1]benzothieno[2,3-d]pyrimidine-7-carboxamide] was 8.15.
The value for `COCCN(CCOC)C(=O)[C@H]1CCc2c(sc3ncnc(Nc4cc5ccnn5cc4Cl)c23)C1` [Example 71, (7S)-4-[(6-Chloropyrazolo[1,5-a]pyridin-5-yl)amino]-N,N-bis(2-methoxyethyl)-5,6,7,8-tetrahydro[1]benzothieno[2,3-d]pyrimidine-7-carboxamide] was 7.92; that for `CN1C[C@@H]2C[C@H]1CN2C(=O)[C@H]1CCc2c(sc3ncnc(Nc4cc5ccnn5cc4Cl)c23)C1` [Example 72, (7S)-4-[(6-Chloropyrazolo[1,5-a]pyridin-5-yl)amino]-5,6,7,8-tetrahydro[1]benzothieno[2,3-d]pyrimidin-7-yl[(1S,4S)-5-methyl-2,5-diazabicyclo[2.2.1]hept-2-yl]methanone] was 7.85.
Regarding `CN1C[C@H]2C[C@@H]1CN2C(=O)[C@H]1CCc2c(sc3ncnc(Nc4cc5ccnn5cc4Cl)c23)C1` [Example 73, (7S)-4-[(6-Chloropyrazolo[1,5-a]pyridin-5-yl)amino]-5,6,7,8-tetrahydro[1]benzothieno[2,3-d]pyrimidin-7-yl[(1R,4R)-5-methyl-2,5-diazabicyclo[2.2.1]hept-2-yl]methanone], the pIC50 was 8.40.
Under `O=C([C@H]1CCc2c(sc3ncnc(Nc4cc5ccnn5cc4Cl)c23)C1)N1C[C@@H]2C[C@H]1CO2` [Example 74, (7S)-4-[(6-Chloropyrazolo[1,5-a]pyridin-5-yl)amino]-5,6,7,8-tetrahydro[1]benzothieno[2,3-d]pyrimidin-7-yl[(1S,4S)-2-oxa-5-azabicyclo[2.2.1]hept-5-yl]methanone] stands 7.66.
